System: K98450-129-R-PDC complex spheroid growth, percent test/control
Assay: Anticancer human tumor K98450-129-R-PDC patient-derived colon adenocarcinoma cell line growth inhibition [RAS]
Settings: for IC50: curve of first compound; for viability, T/C: stronger effect = lower value; active means viability on the fitted dose curve at most 10% of control; inactive means the rest
Summary of the method: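 Multi-cell-type spheroids: tumor cells plus HUVEC endothelial cells and mesenchymal stem cells. RAS-pathway inhibitors were combined with targeted agents, each dosed in half-log steps down from clinical Cmax, or from 10 microM when Cmax was unknown.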

[1] = second compound 0.0316 µM, first compound 0.0316 µM
[2] = second compound 0.0316 µM, first compound 0.1 µM
[3] = second compound 0.0316 µM, first compound 0.316 µM
[4] = second compound 0.0316 µM, first compound 1 µM
[5] = second compound 0.0316 µM, first compound 3.16 µM
[6] = second compound 0.0316 µM, first compound 10 µM
[7] = second compound 0.1 µM, first compound 0.0316 µM
[8] = second compound 0.1 µM, first compound 0.1 µM
[9] = second compound 0.1 µM, first compound 0.316 µM
[10] = second compound 0.1 µM, first compound 1 µM
[11] = second compound 0.1 µM, first compound 3.16 µM
[12] = second compound 0.1 µM, first compound 10 µM
[13] = second compound 0.316 µM, first compound 0.0316 µM
[14] = second compound 0.316 µM, first compound 0.1 µM
[15] = second compound 0.316 µM, first compound 0.316 µM
[16] = second compound 0.316 µM, first compound 1 µM
[17] = second compound 0.316 µM, first compound 3.16 µM
[18] = second compound 0.316 µM, first compound 10 µM
[19] = second compound 1 µM, first compound 0.0316 µM
[20] = second compound 1 µM, first compound 0.1 µM
[21] = second compound 1 µM, first compound 0.316 µM
[22] = second compound 1 µM, first compound 1 µM
[23] = second compound 1 µM, first compound 3.16 µM
[24] = second compound 1 µM, first compound 10 µM
[25] = second compound 3.16 µM, first compound 0.0316 µM
[26] = second compound 3.16 µM, first compound 0.1 µM
[27] = second compound 3.16 µM, first compound 0.316 µM
[28] = second compound 3.16 µM, first compound 1 µM
[29] = second compound 3.16 µM, first compound 3.16 µM
[30] = second compound 3.16 µM, first compound 10 µM
[31] = second compound 10 µM, first compound 0.0316 µM
[32] = second compound 10 µM, first compound 0.1 µM
[33] = second compound 10 µM, first compound 0.316 µM
[34] = second compound 10 µM, first compound 1 µM
[35] = second compound 10 µM, first compound 3.16 µM
[36] = second compound 10 µM, first compound 10 µM
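Further: spheroids exposed to agents for seven days before the viability readout.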
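Wherever viability, T/C is given: luminescence used as a proxy for viable cell amount.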

CC1(O)CCCC1n1c(=O)c(C(F)F)cc2cnc(NC3CCN(S(C)(=O)=O)CC3)nc21 (stereo not drawn) + C#Cc1c(F)ccc2cc(O)cc(-c3ncc4c(N5CC6CCC(C5)N6)nc(OCC56CCCN5CC(F)C6)nc4c3F)c12
> 10 µM: IC50 (second compound 0.0316 µM) | IC50 (second compound 0.1 µM) | IC50 (second compound 0.316 µM) | IC50 (second compound 1 µM) | IC50 (second compound 3.16 µM) | IC50 (second compound 10 µM)
inactive: viability, T/C [1] 105% | viability, T/C [2] 101% | viability, T/C [3] 91.3% | viability, T/C [4] 78.3% | viability, T/C [5] 64.2% | viability, T/C [6] 59.3% | viability, T/C [7] 108% | viability, T/C [8] 101% | viability, T/C [9] 91.7% | viability, T/C [10] 77.8% | viability, T/C [11] 65.8% | viability, T/C [12] 60.5% | viability, T/C [13] 106% | viability, T/C [14] 99.5% | viability, T/C [15] 92.4% | viability, T/C [16] 78.8% | viability, T/C [17] 65.5% | viability, T/C [18] 60.5% | viability, T/C [19] 104% | viability, T/C [20] 103% | viability, T/C [21] 89.3% | viability, T/C [22] 68.8% | viability, T/C [23] 58.8% | viability, T/C [24] 55.3% | viability, T/C [25] 90.9% | viability, T/C [26] 94.2% | viability, T/C [27] 83.5% | viability, T/C [28] 73.7% | viability, T/C [29] 63.8% | viability, T/C [30] 57.3% | viability, T/C [31] 89.8% | viability, T/C [32] 85.6% | viability, T/C [33] 80% | viability, T/C [34] 67.4% | viability, T/C [35] 57.4% | viability, T/C [36] 51%

CCC(CC)c1cc(NC2CCC(N)C2)n2nccc2n1 (stereo not drawn) + C#Cc1c(F)ccc2cc(O)cc(-c3ncc4c(N5CC6CCC(C5)N6)nc(OCC56CCCN5CC(F)C6)nc4c3F)c12
5.51 µM: IC50 (second compound 0.1 µM)
6.22 µM: IC50 (second compound 0.316 µM)
6.08 µM: IC50 (second compound 0.0316 µM)
5.71 µM: IC50 (second compound 1 µM)
4.67 µM: IC50 (second compound 10 µM)
5.43 µM: IC50 (second compound 3.16 µM)
inactive: viability, T/C [1] 99.8% | viability, T/C [2] 102% | viability, T/C [3] 103% | viability, T/C [4] 106% | viability, T/C [5] 93.7% | viability, T/C [6] 16.3% | viability, T/C [7] 105% | viability, T/C [8] 108% | viability, T/C [9] 102% | viability, T/C [10] 98.3% | viability, T/C [11] 81.7% | viability, T/C [12] 16.9% | viability, T/C [13] 105% | viability, T/C [14] 117% | viability, T/C [15] 108% | viability, T/C [16] 97.7% | viability, T/C [17] 94.8% | viability, T/C [18] 20% | viability, T/C [19] 104% | viability, T/C [20] 99.8% | viability, T/C [21] 99.4% | viability, T/C [22] 101% | viability, T/C [23] 82.4% | viability, T/C [24] 19.1% | viability, T/C [25] 91.7% | viability, T/C [26] 97.1% | viability, T/C [27] 94.9% | viability, T/C [28] 84.7% | viability, T/C [29] 79.1% | viability, T/C [30] 18.9% | viability, T/C [31] 84.2% | viability, T/C [32] 90.2% | viability, T/C [33] 88.2% | viability, T/C [34] 89.4% | viability, T/C [35] 68.5% | viability, T/C [36] 14.1%

CCN1CCN(Cc2ccc(Nc3ncc(F)c(-c4cc(F)c5nc(C)n(C(C)C)c5c4)n3)nc2)CC1 + C#Cc1c(F)ccc2cc(O)cc(-c3ncc4c(N5CC6CCC(C5)N6)nc(OCC56CCCN5CC(F)C6)nc4c3F)c12
0.27 µM: IC50 (second compound 10 µM)
inactive: viability, T/C (second compound 0.0316 µM, first compound 0.00316 µM) 110% | viability, T/C (second compound 0.0316 µM, first compound 0.01 µM) 105% | viability, T/C [1] 99% | viability, T/C [2] 92.4% | viability, T/C [3] 72.2% | viability, T/C [4] 74.4% | viability, T/C (second compound 0.1 µM, first compound 0.00316 µM) 109% | viability, T/C (second compound 0.1 µM, first compound 0.01 µM) 100% | viability, T/C [7] 98.4% | viability, T/C [8] 86.9% | viability, T/C [9] 74.1% | viability, T/C [10] 70.5% | viability, T/C (second compound 0.316 µM, first compound 0.00316 µM) 104% | viability, T/C (second compound 0.316 µM, first compound 0.01 µM) 106% | viability, T/C [13] 97.6% | viability, T/C [14] 89.6% | viability, T/C [15] 74.5% | viability, T/C [16] 67.4% | viability, T/C (second compound 1 µM, first compound 0.00316 µM) 107% | viability, T/C (second compound 1 µM, first compound 0.01 µM) 99.5% | viability, T/C [19] 90.1% | viability, T/C [20] 82.8% | viability, T/C [21] 66.5% | viability, T/C [22] 59.2% | viability, T/C (second compound 3.16 µM, first compound 0.00316 µM) 90.4% | viability, T/C (second compound 3.16 µM, first compound 0.01 µM) 94.6% | viability, T/C [25] 95.8% | viability, T/C [26] 75.6% | viability, T/C [27] 62.8% | viability, T/C [28] 53.6% | viability, T/C (second compound 10 µM, first compound 0.00316 µM) 85.7% | viability, T/C (second compound 10 µM, first compound 0.01 µM) 89.3% | viability, T/C [31] 81.6% | viability, T/C [32] 69.8% | viability, T/C [33] 46.9% | viability, T/C [34] 31.9%
> 1 µM: IC50 (second compound 0.0316 µM) | IC50 (second compound 0.1 µM) | IC50 (second compound 0.316 µM) | IC50 (second compound 1 µM) | IC50 (second compound 3.16 µM)

Cc1nc(N2CCC3(CC2)COC(C)C3N)c(CO)nc1Sc1ccnc(N)c1Cl (stereo not drawn) + C#Cc1c(F)ccc2cc(O)cc(-c3ncc4c(N5CC6CCC(C5)N6)nc(OCC56CCCN5CC(F)C6)nc4c3F)c12
1.72 µM: IC50 (second compound 1 µM)
0.513 µM: IC50 (second compound 10 µM)
1.07 µM: IC50 (second compound 3.16 µM)
active: viability, T/C [30] 10.5% | viability, T/C [36] 7.51%
3.01 µM: IC50 (second compound 0.0316 µM)
3.13 µM: IC50 (second compound 0.1 µM)
inactive: viability, T/C [1] 104% | viability, T/C [2] 93.3% | viability, T/C [3] 88.8% | viability, T/C [4] 75.8% | viability, T/C [5] 46.9% | viability, T/C [6] 25% | viability, T/C [7] 112% | viability, T/C [8] 93.5% | viability, T/C [9] 83.6% | viability, T/C [10] 80.8% | viability, T/C [11] 45.3% | viability, T/C [12] 21.5% | viability, T/C [13] 101% | viability, T/C [14] 97.5% | viability, T/C [15] 86.1% | viability, T/C [16] 66.6% | viability, T/C [17] 43.1% | viability, T/C [18] 19.8% | viability, T/C [19] 97% | viability, T/C [20] 98.9% | viability, T/C [21] 84% | viability, T/C [22] 64.3% | viability, T/C [23] 34.3% | viability, T/C [24] 12.9% | viability, T/C [25] 91.2% | viability, T/C [26] 82% | viability, T/C [27] 79.8% | viability, T/C [28] 52.7% | viability, T/C [29] 17.1% | viability, T/C [31] 83.4% | viability, T/C [32] 82.2% | viability, T/C [33] 62.8% | viability, T/C [34] 31.7% | viability, T/C [35] 11.4%
2.24 µM: IC50 (second compound 0.316 µM)
